Experimental findings from patent EP0995757A2, “Bivalent inhibitors of the proteasome” (Max-Planck-Gesellschaft zur Förderung der Wissenschaften …, priority 1998, dated 2000) are described below.

Where a SMILES comes first, the peptide text is derived from it.

Assay [1] deals with T1, yeast proteasome β2/β2' (Saccharomyces cerevisiae, UniProt P25043). Put plainly: Proteasome assay, trypsin-like activity (fluorogenic substrate Bz-Phe-Val-Arg-AMC). The assay is classed as biochemical. Details: endogenous in cells; host or cells: Saccharomyces cerevisiae. The conditions noted are these: Bz-Phe-Val-Arg-AMC 8 µM, inhibitor incubated 1 h at 37°C, Tris-buffer pH 7.5. As to the method:
(§1) A solution of proteasome from Saccharomyces cerivisiae in Tris-buffer (pH 7.5; 450 µl; 6.67 nM for PGPH, 5.56 nM for trypsin-like and 1.11 nM for chymotrypsin-like activity) was incubated with the inhibitors at varying concentrations ([…]) for 1 h at 37°C. The fluorogenic substrates for PGPH (Z-Leu-Leu-Glu-βNA, 40 µM), trypsin-like (Bz-Phe-Val-Arg-AMC, 8 µM) and chymotrypsin-like assays (Suc-Leu-Leu-Val-Tyr-AMC, 8 µM) were dissolved in the same Tris-buffer with a minimum amount of DMSO and added to the enzyme solution at 37 °C to reach a final volume of 500 µl. Fluorescence excitation/emission wavelengths were 360 nm/460 nm for AMC and 335 nm/410 nm for βNA. The rates of hydrolysis were monitored by the fluorescence increase and the initial linear portions of curves (100-300 sec) were used to calculate the IC50 values.

Assay [2] deals with T2, yeast proteasome β5/β5' (Saccharomyces cerevisiae, UniProt P30656). Put plainly: Proteasome assay, chymotrypsin-like activity (fluorogenic substrate Suc-Leu-Leu-Val-Tyr-AMC). The assay is classed as biochemical. Details: endogenous in cells; host or cells: Saccharomyces cerevisiae. The conditions noted are these: Suc-Leu-Leu-Val-Tyr-AMC 8 µM, inhibitor incubated 1 h at 37°C, Tris-buffer pH 7.5. As to the method:
as §1

The target in assay [3] is T3, yeast proteasome β1/β1' (Saccharomyces cerevisiae, UniProt P38624). Put plainly: Proteasome assay, PGPH activity (fluorogenic substrate Z-Leu-Leu-Glu-βNA). Details: Three of the seven different β-type subunits are processed at the N-terminal nucleophile, the threonine-1 residue; endogenous in cells; host or cells: Saccharomyces cerevisiae. It is filed as biochemical. The conditions noted are these: Z-Leu-Leu-Glu-βNA 40 µM, inhibitor incubated 1 h at 37°C, Tris-buffer pH 7.5. As to the method:
as §1

For another assay, the target named is T4, yeast 20S proteasome (Saccharomyces cerevisiae, UniProt P25043+P30656+P38624).
T4 construct: Three of the seven different β-type subunits are processed at the N-terminal nucleophile, the threonine-1 residue; from tissue; host or cells: Saccharomyces cerevisiae (natural 20S complex)
The assay is described as follows: X-ray structure analysis of proteasome/inhibitor complexes (crystal soaking). Details: species or system S. cerivisiae. The conditions noted are these: crystals soaked with 5 mM inhibitor for 12h, no competing substrate. As to the method: Crystals of […] proteasomes from S. cerivisiae were grown in hanging drops at 24 °C as described previously (Groll et al., Nature 386, 463-471, 1997). The protein concentration used for crystallization was 40 mg/ml in 10 mM Tris-HCl (pH 7.5) and 1 mM EDTA. The drops contained 4 µl protein and 2 µl reservoir solution with 30 mM magnesium acetate, 100 mM morpholino-ethane-sulphonic acid (pH 6.5) and 11 % MPD. The inhibitors were soaked with a final concentration of 5 mM for 12h. Data were collected using synchrotron radiation with λ = 1.1 Å on the BW6-beamline at the DESY-Centre/Hamburg/Germany (Table 1). Crystals were soaked in a cryoprotecting buffer (30% MPD, 28 mM magnesium acetate, 100 mM morpholino-ethane-sulfonic acid (pH 6.9) and frozen in a stream of cold nitrogen gas at 90 K (Oxford Cryo Systems). X-ray intensities were evaluated by using the MOSFILM program package (version 5.3) and data reduction was performed with CCP4. The anisotropy of diffraction was corrected by an overall anisotropic temperature factor by comparing observed and calculated structure amplitudes using X-PLOR (Brunger, A. (1992) X-PLOR: A System for X-Ray Crystallography and NMR, version 3.1; Yale University Press, New Haven, CT). Electron density was averaged 10 times over the 2-fold non crystallographic symmetry axis using MAIN (Turk, D., Ph. D. Thesis, Technical University, Munich, 1992). […]

For assay [4], the target named is T1, yeast proteasome β2/β2'. Put plainly: Proteasome assay, trypsin-like activity (fluorogenic substrate Bz-Phe-Val-Arg-AMC). It is filed as biochemical, Saccharomyces cerivisiae. Details: from tissue; host or cells: Saccharomyces cerevisiae (natural complex from yeast; I conclude this from 'proteasome from'). The conditions noted are these: for IC50: trypsin-like activity, Bz-Phe-Val-Arg-AMC 8 µM, inhibitor incubated 1 h at 37°C, Tris-buffer pH 7.5; for increase in binding affinity: compared to the monovalent inhibitors 1, 2, 3 and 5, β2/β2'. As to the method:
as §1

Assay [5] has as its target T2, yeast proteasome β5/β5'. The assay is described as follows: Proteasome assay, chymotrypsin-like activity (fluorogenic substrate Suc-Leu-Leu-Val-Tyr-AMC). Details: from tissue; host or cells: Saccharomyces cerevisiae (natural complex from yeast; I conclude this from 'proteasome from'). The assay is classed as biochemical, Saccharomyces cerivisiae. The conditions noted are these: for IC50: chymotrypsin-like activity, Suc-Leu-Leu-Val-Tyr-AMC 8 µM, inhibitor incubated 1 h at 37°C, Tris-buffer pH 7.5; for increase in binding affinity: compared to the monovalent inhibitors 1, 2, 3 and 5, β5/β5'. As to the method:
as §1

Assay [6] addresses T3, yeast proteasome β1/β1'. The assay is described as follows: Proteasome assay, PGPH activity (fluorogenic substrate Z-Leu-Leu-Glu-βNA). It is filed as biochemical, Saccharomyces cerivisiae. Details: Three of the seven different β-type subunits are processed at the N-terminal nucleophile, the threonine-1 residue; from tissue; host or cells: Saccharomyces cerevisiae (natural complex from yeast; I conclude this from 'proteasome from'). The conditions noted are these: Z-Leu-Leu-Glu-βNA 40 µM, inhibitor incubated 1 h at 37°C, Tris-buffer pH 7.5. As to the method:
as §1

The IC50 is the concentration that inhibits the measured activity by half. Read a high IC50 as lower potency. Turning to `CC(=O)N[C@@H](CCCNC(=N)N)C(=O)N[C@H](C(=O)N[C@H](C=O)CCCNC(=N)N)C(C)C` [compound 2, Ac-Arg-Val-Arg-H] (Ac-Arg-Val-Arg-aldehyde), the results for the half-inhibitory concentration (IC50) against yeast proteasome β2/β2' [1], at yeast proteasome β5/β5' [2] and against yeast proteasome β1/β1' [3] were 6.4 µM, > 100 µM and > 100 µM, respectively.
Regarding “(PEG)19-25-[NH- CO- (CH2)2- CO-Leu-Leu-Nle-H]2 [compound 4]”, the “active sites occupied by the inhibitory head group in the X-ray structure” value at yeast 20S proteasome is “occupies all six active sites”. Also, the IC50 against yeast proteasome β2/β2' [4] is > 100 µM; against yeast proteasome β5/β5' [5], 0.017 µM; against yeast proteasome β1/β1' [6] it was > 100 µM. Also, the “increase in binding affinity” value at yeast proteasome β5/β5' [5] is reported as “about two orders of magnitude”. Further, the increased activity at yeast proteasome β5/β5' [5] (homobivalent versus related monovalent inhibitors, chymotryptic activity β5/β5') amounted to 100 fold.
On to “(PEG)19-25-[NH-CO-(CH2)2-CO-Arg- Val-Arg-H]2 [compound 6]”, for which the “active sites occupied by the inhibitory head group in the X-ray structure” value at yeast 20S proteasome was “only in the two β2 and β2' active sites”. In addition, at yeast proteasome β2/β2' [4], the “increase in binding affinity” value is “about two orders of magnitude”. This molecule showed an increased activity at yeast proteasome β2/β2' [4] (homobivalent versus related monovalent inhibitors, tryptic activity β2/β2') of 100 fold. For the same molecule, the IC50 is 0.071 µM against yeast proteasome β2/β2' [4], > 100 µM against yeast proteasome β5/β5' [5] and > 100 µM at yeast proteasome β1/β1' [6].
With “(PEG)19-25-[NH-CO-(CH2)2-CO-Arg-Val-Arg-H][NH-CO-(CH2)2-CO-Leu-Leu-Nle-H] [compound 7]”, the “increase in binding affinity” value at yeast proteasome β2/β2' [4] and at yeast proteasome β5/β5' [5] was “about two orders of magnitude” in each case. The 50% inhibitory concentration (IC50) at yeast proteasome β2/β2' [4] is 0.097 µM; on yeast proteasome β5/β5' [5] it was 0.031 µM; at yeast proteasome β1/β1' [6], > 100 µM.
“HOOC-(CH2)2-CO-NH-(PEG)19-25-NH-(CH2)2-CO-Leu-Leu-Nle-H [compound 3]”: the half-inhibitory concentration (IC50) is > 100 µM on yeast proteasome β2/β2' [4], 1.8 µM against yeast proteasome β5/β5' [5] and > 100 µM against yeast proteasome β1/β1' [6].
Turning to “HOOC-(CH2)2-CO-NH-(PEG)19-25-NH-CO-(CH2)2-CO-Arg-Val-Arg-H [compound 5]”, the IC50 at yeast proteasome β2/β2' [4] was 8.2 µM; against yeast proteasome β5/β5' [5], > 100 µM; against yeast proteasome β1/β1' [6], > 100 µM.
